Data: paper PMC10001067, “Xanthine Oxidase Inhibitory Peptides from Larimichthys polyactis: Characterization and In Vitro/In Silico Evidence” (Foods, 2023)
No end group written: not given here.

Legend:
XO = details: concentration of 0.25 mg/mL; cited from earlier work
Protocol: Nongonierma reported that Trp inhibited XO by 70.3 ± 1.1% at a concentration of 0.25 mg/mL. Li claimed that relatively lower IC50 values were mainly located in the peptides containing Trp residue, reporting that the IC50 values of peptides WDD, WDQW, PPKNW, WPPKN, and WSREEQE were lower than those of peptides HCPF and ADIYTE, and that these ...

xanthine oxidase (XO) [1] = details: peptide from Skipjack tuna hydrolysates; read-out: XOI activity of IC50; cited from earlier work
Source text: Seven peptides (WDDMEKIW, APPERKYSVW, IADRMQKELT, LNSADLIK, LSNLGIVI, IGALRAVA, and HHTFYNELR) derived from SYC were obtained and their activity values, hemolysis, and toxicity were predicted. Their basic data (AA sequence, MW, PI, predicted activity values, hemolysis, toxicity, and IC50 for XOI activity) are summarized in Table 3. […] Only WW8 and AW10 were predicted to have higher potential physiological activity, and all were non-hemolytic except LSNLGIVI and LNSADLIK. The r ...

xanthine oxidase (XO) [2] = molecular target: T1, xanthine oxidase (XO) (Bos taurus, UniProt P80457); experiment: XOI activity IC50 in vitro (uric acid formation, absorbance 290 nm); format: biochemical, bovine milk; details: for IC50: synthesized peptides, 0.2 M potassium phosphate buffer pH 7.4, XO 0.07 U/mL, xanthine 0.48 mM, 37 °C, absorbance 290 nm, mean ± SD, n = 3, SD; for XOI activity at 15 mg/mL: peptide at 15 mg/mL
T1 construct: xanthine oxidase (X1875-5UN, derived from bovine milk); purchased Solarbio Co., Ltd. (Beijing, China) X1875-5UN; host or cells: bovine milk
T1 sequence (P80457 whole entry): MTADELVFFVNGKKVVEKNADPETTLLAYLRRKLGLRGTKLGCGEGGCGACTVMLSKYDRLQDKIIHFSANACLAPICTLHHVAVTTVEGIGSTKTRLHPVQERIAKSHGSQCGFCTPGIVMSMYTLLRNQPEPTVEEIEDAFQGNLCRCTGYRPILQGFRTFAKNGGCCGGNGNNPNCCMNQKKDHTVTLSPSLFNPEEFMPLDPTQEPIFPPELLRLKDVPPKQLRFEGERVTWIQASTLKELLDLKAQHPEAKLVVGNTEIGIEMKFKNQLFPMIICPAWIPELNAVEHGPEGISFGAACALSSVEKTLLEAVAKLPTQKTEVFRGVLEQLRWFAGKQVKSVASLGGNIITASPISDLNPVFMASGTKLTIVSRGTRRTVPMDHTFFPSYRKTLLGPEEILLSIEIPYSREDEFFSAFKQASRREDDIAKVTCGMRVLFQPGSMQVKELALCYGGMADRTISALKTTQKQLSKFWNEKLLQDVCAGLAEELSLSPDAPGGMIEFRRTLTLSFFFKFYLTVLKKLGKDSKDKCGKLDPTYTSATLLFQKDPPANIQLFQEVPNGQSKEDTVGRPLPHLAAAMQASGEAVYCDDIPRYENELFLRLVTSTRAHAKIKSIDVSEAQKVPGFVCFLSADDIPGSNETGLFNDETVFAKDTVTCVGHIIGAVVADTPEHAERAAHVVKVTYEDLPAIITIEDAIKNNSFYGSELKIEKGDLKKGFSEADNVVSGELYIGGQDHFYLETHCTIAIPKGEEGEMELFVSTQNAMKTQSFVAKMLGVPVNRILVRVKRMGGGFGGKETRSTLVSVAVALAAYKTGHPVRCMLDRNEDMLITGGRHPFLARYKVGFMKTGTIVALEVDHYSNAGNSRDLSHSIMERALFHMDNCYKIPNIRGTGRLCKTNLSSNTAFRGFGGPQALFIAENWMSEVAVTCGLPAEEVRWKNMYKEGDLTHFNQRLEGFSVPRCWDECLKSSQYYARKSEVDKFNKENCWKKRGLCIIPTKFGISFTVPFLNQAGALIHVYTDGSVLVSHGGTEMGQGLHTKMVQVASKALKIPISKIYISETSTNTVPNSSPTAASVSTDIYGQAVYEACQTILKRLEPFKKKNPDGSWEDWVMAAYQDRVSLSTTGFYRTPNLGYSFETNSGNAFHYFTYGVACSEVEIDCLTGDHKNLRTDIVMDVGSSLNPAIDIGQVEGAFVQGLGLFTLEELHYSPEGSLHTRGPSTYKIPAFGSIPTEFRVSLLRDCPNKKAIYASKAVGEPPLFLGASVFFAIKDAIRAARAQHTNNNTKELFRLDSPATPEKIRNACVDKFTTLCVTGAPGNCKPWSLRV
Protocol: The XOI activity levels of SYCHs were determined and calculated with the methods reported by Liu and Wei with slight modifications. Xanthine was dissolved in 0.2 M potassium phosphate buffer (pH = 7.4) to a concentration of 0.48 mM. In addition, samples (SYCH, UF-1, UF-2, and UF-3) were also dissolved in 0.2 M potassium phosphate buffer (pH = 7.4). Next, 50 μL of sample solution and 50 μL of XO solution (0.07 U/mL) were mixed and incubated at 37 °C for 5 min, then 150 μL of xanthine solution was added to the mixture to continue the reaction. The absorbance of formed uric acid in the samples was monitored at 290 nm with a multifunctional microplate reader (Tecan Co., Ltd., Männedorf, Switzerland). The results were recorded for 10 min. The assay was performed in triplicate. The formula for the calculation of XOI activity is as follows: […]=(dA/dt)blank−(dA/dt)sample/(dA/dt)blank × 100% where (dA/dt)blank and (dA/dt)sample are the reaction rate without and with the test sample inhibitor, respectively. IC50 values were calculated from the mean values of data. XOI activity IC50 (the concentration of active compound required to observe 50% XO inhibition) was determined by plotting the percentage inhibition as a function of concentration of the test compound.

[3] = Dissolution of synthesized peptides in water; format: physicochemical

N[C@@H](Cc1c[nH]c2ccccc12)C(=O)O [Trp]
Inhibition of XO (XO): 70.3 ± 1.1%

ACECD [XOI peptide from Skipjack tuna hydrolysates]
IC50 (xanthine oxidase (XO) [1]): 13.4 mM

APPERKYSVW [APPERKYSVW, Ala-Pro-Pro-Glu-Arg-Lys-Tyr-Ser-Val-Trp]
IC50 (xanthine oxidase (XO) [2]): 5.86 ± 0.02 mM

HHTFYNELR [peptide derived from SYC]
Dissolution in water at 3 mg/mL [3]: did not even dissolve in water

IADRMQKELT [peptide derived from SYC]
XOI activity at 15 mg/mL (xanthine oxidase (XO) [2]): no XOI activity

IGALRAVA [peptide derived from SYC]
Dissolution in water at 3 mg/mL [3]: did not even dissolve in water

LNSADLIK [peptide derived from SYC]
XOI activity at 15 mg/mL (xanthine oxidase (XO) [2]): no XOI activity

LSNLGIVI [peptide derived from SYC]
Dissolution in water at 3 mg/mL [3]: did not even dissolve in water

WDDMEKIW [WDDMEKIW, Trp-Asp-Asp-Met-Glu-Lys-Ile-Trp]
IC50 (xanthine oxidase (XO) [2]): 3.16 ± 0.03 mM
